# Reference: US5306720A, “Piperidine derivative and pharmaceutical composition” (priority 1985, dated 1994)
# Where a name gives a salt, the structure may show the parent alone.
# Tested on: ddY male mouse
# Experiment: Acute Toxicity Test for ddY Male Mouse
# Type: in vivo
# Details: oral to mouse, 100 mg (mg/kg), ddY male mice
# Description: Acute Toxicity Test for ddY Male Mouse
# Acute toxicity test was carried out using ddY male mice.
row,SMILES,"number of deaths / number of animals used, 100 mg"
1,"CN(CCC1CCN(Cc2ccccc2)CC1)C(=O)c1ccncc1 [Example 5, N-methyl-N-[4'-(1'-benzylpiperidyl)ethyl] isonicotinic acid amide hydrochloride]",1/4
2,"CN(CCC1CCN(Cc2ccccc2)CC1)C(=O)c1ccc(S(=O)(=O)Cc2ccccc2)cc1 [Example 4, N-methyl-N-[4'-(1'-benzylpiperidine)ethyl]-4-benzylsulfonylbenzamide, hydrochloride]",0/3
3,"O=c1[nH]c2ccccc2c(=O)n1CCC1CCN(Cc2ccccc2)CC1 [Example 10, 3-[2-(1-benzyl-4-piperidino)ethyl]-2,4-(1H,3H)-quinazolidione.hydrochloride]",3/4

# Same assay, conditions: oral to mouse, 300 mg (mg/kg), ddY male mice
row,SMILES,"number of deaths / number of animals used, 300 mg"
1,"CN(CCC1CCN(Cc2ccccc2)CC1)C(=O)c1ccncc1 [Example 5, N-methyl-N-[4'-(1'-benzylpiperidyl)ethyl] isonicotinic acid amide hydrochloride]",4/4
2,"CN(CCC1CCN(Cc2ccccc2)CC1)C(=O)c1ccc(S(=O)(=O)Cc2ccccc2)cc1 [Example 4, N-methyl-N-[4'-(1'-benzylpiperidine)ethyl]-4-benzylsulfonylbenzamide, hydrochloride]",2/4
3,"O=C1c2ccc([N+](=O)[O-])cc2C(=O)N1CCC1CCN(Cc2ccccc2)CC1 [Example 7, N-[2-(N'-benzylpiperidino-4)ethyl]-4-nitrophthalimide.hydrochloride]",0/3

# Target: T1, acetylcholinesterase (Mus musculus, UniProt P21836)
# T1 construct: Using a mouse brain homogenate as a source of acetylcholinesterase; from tissue; host or cells: mouse brain homogenate
# T1 sequence (P21836 32-614): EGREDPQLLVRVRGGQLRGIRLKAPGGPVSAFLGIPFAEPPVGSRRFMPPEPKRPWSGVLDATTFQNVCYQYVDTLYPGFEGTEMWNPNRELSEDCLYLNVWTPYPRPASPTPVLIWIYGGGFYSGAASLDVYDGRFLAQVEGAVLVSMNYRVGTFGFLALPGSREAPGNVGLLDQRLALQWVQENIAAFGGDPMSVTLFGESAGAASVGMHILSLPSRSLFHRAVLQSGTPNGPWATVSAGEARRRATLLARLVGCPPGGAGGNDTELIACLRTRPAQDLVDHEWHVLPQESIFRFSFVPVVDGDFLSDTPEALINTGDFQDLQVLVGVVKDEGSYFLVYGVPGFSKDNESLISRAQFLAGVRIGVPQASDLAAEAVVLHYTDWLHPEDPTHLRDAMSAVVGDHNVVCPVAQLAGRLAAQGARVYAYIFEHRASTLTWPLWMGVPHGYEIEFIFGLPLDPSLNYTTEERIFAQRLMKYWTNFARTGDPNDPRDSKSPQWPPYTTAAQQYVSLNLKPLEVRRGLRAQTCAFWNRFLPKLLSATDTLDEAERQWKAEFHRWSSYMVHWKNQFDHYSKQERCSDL
# Experiment: biochemical
# Type: biochemical
# Details: mouse brain homogenate; thiocholine method, absorbance at 412 nm; read-out: AChE inhibitory activity IC50
# Description: Acetylcholinesterase Inhibitory Action using Mouse Brain Homogenate
# Using a mouse brain homogenate as a source of acetylcholinesterase, the esterase activity was measured by a thiocholine method. Acetylcholine as a substrate, the compound of the invention as a substance to test and 5,5'-dithio-bis(2-nitrobenzoic acid), called also DTNB, were added to the mouse brain homogenate. After incubation, thiocholine produced was reacted with DTNB to form a yellow product.
row,SMILES,IC50
1,O=C(NCCC1CCN(Cc2ccccc2)CC1)c1ccc(C(=O)NCc2ccccc2)cc1 [Example 26],9 nM
2,O=c1c2cc3c(=O)n(CCC4CCN(Cc5ccccc5)CC4)c(=O)c3cc2c(=O)n1CCC1CCN(Cc2ccccc2)CC1 [Example 112],0.15 nM
3,O=C(c1ccccc1)c1ccc2c(c1)C(=O)N(CCC1CCN(Cc3ccccc3)CC1)C2=O [Example 53],2.4 nM
4,O=C(NCCC1CCN(Cc2ccccc2)CC1)c1ccc2c(c1)C(=O)c1ccccc1C2=O [Example 25],4.5 nM
5,"O=C1c2cccc3cccc(c23)C(=O)N1CCC1CCN(Cc2ccccc2)CC1 [Example 9, N-[2-(N'-benzylpiperidino-4)ethyl]-1,8-naphthalimide]",5.5 nM
6,O=C1c2cc3ccccc3cc2C(=O)N1CCC1CCN(Cc2ccccc2)CC1 [Example 57],1.2 nM
7,Cc1ccc2[nH]c(=O)n(CCC3CCN(Cc4ccccc4)CC3)c(=O)c2c1 [Example 113],4.7 nM
8,CN(CCC1CCN(Cc2ccc(O)cc2)CC1)C(=O)c1ccc(S(=O)(=O)Cc2ccccc2)cc1 [Example 41],0.8 nM
9,"CN(CCC1CCN(Cc2ccccc2)CC1)C(=O)c1ccncc1 [Example 5, N-methyl-N-[4'-(1'-benzylpiperidyl)ethyl] isonicotinic acid amide hydrochloride]",88 nM
10,O=C1c2cccnc2C(=O)N1CCC1CCN(Cc2ccccc2)CC1 [Example 58],13 nM
11,O=C(NCCC1CCN(Cc2ccccc2)CC1)c1ccc([N+](=O)[O-])cc1 [Example 71],55 nM
12,CN(CCC1CCN(Cc2ccccc2)CC1)C(=O)c1ccc(-c2ccccc2)cc1 [Example 32],4.3 nM
13,COc1cc2c(cc1Cl)C(=O)N(CCC1CCN(Cc3ccccc3)CC1)C2=O [Example 56],3.3 nM
14,O=C(NCc1ccccc1)c1ccc2c(c1)C(=O)N(CCC1CCN(Cc3ccccc3)CC1)C2=O [Example 51],2.2 nM
15,"CN(CCC1CCN(Cc2ccccc2)CC1)C(=O)c1ccc(S(=O)(=O)Cc2ccccc2)cc1 [Example 4, N-methyl-N-[4'-(1'-benzylpiperidine)ethyl]-4-benzylsulfonylbenzamide, hydrochloride]",0.6 nM
16,O=C(NCCC1CCN(Cc2ccccc2)CC1)c1ccc(SCCl)cc1 [Example 115],6.7 nM
17,O=C(Nc1ccc2c(c1)C(=O)N(CCC1CCN(Cc3ccccc3)CC1)C2=O)c1ccccc1 [Example 111],0.88 nM
18,"O=C1c2ccc([N+](=O)[O-])cc2C(=O)N1CCC1CCN(Cc2ccccc2)CC1 [Example 7, N-[2-(N'-benzylpiperidino-4)ethyl]-4-nitrophthalimide.hydrochloride]",14 nM
19,CCN(CC)C(=O)c1ccc2c(c1)C(=O)N(CCC1CCN(Cc3ccccc3)CC1)C2=O [Example 52],1.5 nM
20,CC(=O)Nc1ccc2c(c1)C(=O)N(CCC1CCN(Cc3ccccc3)CC1)C2=O [Example 50],2.8 nM
21,"O=C1c2nccnc2C(=O)N1CCC1CCN(Cc2ccccc2)CC1 [Example 8, N-[2-(N'-benzylpiperidino-4)ethyl]-2,3-pyrazinedicarboxylic acid imide]",80 nM
22,O=C1c2ccc(Cl)cc2C(=O)N1CCC1CCN(Cc2ccccc2)CC1 [Example 133],7.9 nM
23,O=C1c2cccc([N+](=O)[O-])c2C(=O)N1CCC1CCN(Cc2ccccc2)CC1 [Example 47],9 nM
24,O=c1[nH]c2cc(Cl)ccc2c(=O)n1CCC1CCN(Cc2ccccc2)CC1 [Example 68],4.5 nM
25,O=C(NCCC1CCN(Cc2ccccc2)CC1)c1ccc(SCc2ccccc2)cc1 [Example 88],49 nM
26,"CN(CCC1CCN(Cc2ccccc2)CC1)C(=O)c1ccc(S(=O)(=O)C2CCCC2)cc1 [Example 6, N-methyl-N-[4'-(1'-benzylpiperidine)ethyl]-4-cyclopentylsulfonylbenzamide.hydrochloride]",21 nM

# Same assay, conditions: read-out: AChE inhibitory activity IC50
row,SMILES,IC50
1,COc1ccc2c(c1)C(=O)N(CCC1CCN(Cc3ccccc3)CC1)C2=O [Example 54],8 nM
